Format in all cases: cell-based
Assay [1] relates to NCI-H720 lung cancer cells. The experiment in a line: CELLTITER-GLO luminescent cell viability assay, NCI-H720 96-well drug screening plate. Particulars: 72 hours. How it is done:
(§1) In example 1, CELLTITER-GLO was used to test sulindac against lung cancer
(§2) 1. Cell Plating • a) The complete medium required for each cell was prepared. • b) Before beginning the experiment, the name of the drug screened for the cells marked on the 100 mm petri dish was confirmed as well as information such as the passage time and number of passages to ensure the experiment was error-free. • c) Refer to steps d) through i) for procedures for adherent cells; refer to steps j) through l) for procedures for suspension cells. • d) When using aseptic technique, a vacuum pump was used to draw the cell culture medium. • e) 2 ml of a sterile PBS solution was used to rinse cell surfaces, and a vacuum pump was used to aspirate the PBS waste. • f) A 1 ml 0.25% (w/v) Trypsin-0.038% (w/v) EDTA solution was gently added to the petri dish for cell digestion, and after gently mixing several times, the solution covered the cell surfaces. […]

The test system of the next assay is SW900 lung cancer cells. Briefly: CELLTITER-GLO luminescent cell viability assay, SW900 96-well drug screening plate. Particulars: Homo sapiens, 72 hours. How it is done:
as §1, §2

The test system of assay [2] is LOVO (ATCC CCL-229) lung cancer cells. The experiment in a line: CELLTITER-GLO luminescent cell viability assay, LOVO cells (same method). As to conditions: Homo sapiens. The method, then: as §2
(ATP-based viability assays read luminescence as a measure of living cells.)

SMILES strings stand for the structures.

With `CC1=C(CC(=O)O)c2cc(F)ccc2/C1=C\c1ccc([S+](C)[O-])cc1` (stereo not shown) [sulindac], the values for the IC50 (in assay [1] (CellTiter-Glo); in the assay on SW900 lung cancer cells; in assay [2]) were 42.7 µM, 50.3 µM and 100 µM, respectively. In addition, the midpoint of the response in assay [1] (FIG. 2 curve fit), the EC50, lay at 38.6 µM.
